In ChEMBL document CHEMBL2176988 (J Med Chem, 2012):
Active and inactive are the calls of the source. No cut-off for these calls is given here.

Assays:
[1] = biological target: Neuronal acetylcholine receptor; alpha4/beta2 (Rattus norvegicus, UniProt P09483+P12390); assay: Displacement of [3H]epibatidine from alpha4beta2 nAChR in Sprague-Dawley rat cortex after 2 hrs by liquid scintillation counting
[2] = biological target: Neuronal acetylcholine receptor subunit alpha-7 (Homo sapiens, UniProt P36544); assay: Displacement of [3H]epibatidine from human alpha7 nAChR expressed in CHO cells after 2 hrs by liquid scintillation counting; assay type: cell-based
[3] = biological target: T1, Neuronal acetylcholine receptor; alpha3/beta4 (Homo sapiens, UniProt P30926+P32297); assay: Agonist activity at human alpha3beta4 nAChR expressed in CHO cells assessed as calcium flux by calcium4-based FLIPR assay; assay type: functional, cell-based
[4] = biological target: T1, Neuronal acetylcholine receptor; alpha3/beta4; assay: Agonist activity at human alpha3beta4 nAChR expressed in CHO cells assessed as calcium flux by calcium4-based FLIPR assay relative to nicotine; assay type: functional, cell-based
[5] = biological target: T2, Neuronal acetylcholine receptor; alpha4/beta2 (Homo sapiens, UniProt P17787+P43681); assay: Partial agonist activity at alpha4beta2 nAChR in human SH-EP1 cells assessed as calcium flux by calcium4-based FLIPR assay relative to nicotine; assay type: functional, cell-based
[6] = biological target: T1, Neuronal acetylcholine receptor; alpha3/beta4; assay: Displacement of [3H]epibatidine from human alpha3beta4 nAChR expressed in CHO cells after 2 hrs by liquid scintillation counting; assay type: cell-based
[7] = biological target: T2, Neuronal acetylcholine receptor; alpha4/beta2; assay: Partial agonist activity at alpha4beta2 nAChR in human SH-EP1 cells assessed as calcium flux by calcium4-based FLIPR assay; assay type: functional, cell-based
[8] = biological target: T2, Neuronal acetylcholine receptor; alpha4/beta2; assay: Displacement of [3H]nicotine from alpha4beta2 nAChR in human SH-EP1 cells after 2 hrs by liquid scintillation assay; assay type: cell-based
[9] = biological target: T2, Neuronal acetylcholine receptor; alpha4/beta2; assay: Binding affinity to alpha4beta2 nAChR; assay type: protein-complex assay
[10] = biological target: T2, Neuronal acetylcholine receptor; alpha4/beta2; assay: Binding affinity to human alpha4beta2 nAChR expressed in xenopus oocyte
[11] = biological target: T1, Neuronal acetylcholine receptor; alpha3/beta4; assay: Displacement of [3H]epibatidine from alpha3beta4 nAChR in human SH-SY5Y cells after 2 hrs by liquid scintillation counting; assay type: cell-based
[12] = biological target: T2, Neuronal acetylcholine receptor; alpha4/beta2; assay: Agonist activity at alpha4beta2 nAChR in human SH-EP1 cells assessed as calcium flux by calcium4-based FLIPR assay; assay type: functional, cell-based
[13] = biological target: T2, Neuronal acetylcholine receptor; alpha4/beta2; assay: Agonist activity at alpha4beta2 nAChR in human SH-EP1 cells assessed as calcium flux by calcium4-based FLIPR assay relative to nicotine; assay type: functional, cell-based
[14] = biological target: T3, 5-hydroxytryptamine receptor 3A (Mus musculus) (UniProt P23979); assay: Inhibition of mouse 5HT3 receptor at 10 uM
T3 sequence (whole entry): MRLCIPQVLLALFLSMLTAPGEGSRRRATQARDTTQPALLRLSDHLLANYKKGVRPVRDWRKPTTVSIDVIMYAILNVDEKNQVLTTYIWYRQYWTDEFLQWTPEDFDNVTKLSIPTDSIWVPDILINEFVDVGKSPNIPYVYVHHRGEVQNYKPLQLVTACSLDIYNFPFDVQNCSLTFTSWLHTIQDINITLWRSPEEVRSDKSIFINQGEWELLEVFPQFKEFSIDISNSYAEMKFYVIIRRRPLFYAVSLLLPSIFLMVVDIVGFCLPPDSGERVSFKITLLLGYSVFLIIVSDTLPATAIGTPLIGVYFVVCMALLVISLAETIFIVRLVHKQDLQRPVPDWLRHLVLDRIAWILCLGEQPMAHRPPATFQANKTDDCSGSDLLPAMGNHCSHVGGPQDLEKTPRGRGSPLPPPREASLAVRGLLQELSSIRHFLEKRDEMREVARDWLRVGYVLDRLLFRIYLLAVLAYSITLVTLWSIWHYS

[15] = Agonist activity at ganglion nAChR; assay type: functional
[16] = biological target: T4, 5-hydroxytryptamine receptor 3A (Homo sapiens) (UniProt P46098); assay: Inhibition of human 5HT3 receptor at 10 uM
T4 sequence (whole entry): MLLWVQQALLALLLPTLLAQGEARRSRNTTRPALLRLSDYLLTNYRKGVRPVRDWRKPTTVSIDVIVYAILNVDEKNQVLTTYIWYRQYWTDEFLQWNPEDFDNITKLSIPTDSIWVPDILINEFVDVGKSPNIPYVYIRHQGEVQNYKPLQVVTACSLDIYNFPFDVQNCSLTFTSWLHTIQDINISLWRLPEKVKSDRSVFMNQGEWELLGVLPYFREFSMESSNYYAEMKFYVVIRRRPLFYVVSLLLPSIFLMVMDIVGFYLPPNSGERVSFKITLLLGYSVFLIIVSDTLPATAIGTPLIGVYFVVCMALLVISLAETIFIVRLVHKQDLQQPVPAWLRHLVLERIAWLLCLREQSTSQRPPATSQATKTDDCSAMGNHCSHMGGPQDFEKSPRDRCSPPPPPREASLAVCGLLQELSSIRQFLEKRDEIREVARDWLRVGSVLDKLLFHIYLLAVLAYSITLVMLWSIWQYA

[17] = biological target: Acetylcholine receptor; alpha1/beta1/delta/gamma (Homo sapiens) (UniProt P02708+P07510+P11230+Q07001); assay: Agonist activity at alpha1beta1gammadelta nAChR; assay type: functional
hERG (KCNH2) = hERG (KCNH2) (Homo sapiens, UniProt Q12809); assay: Inhibition of human ERG at 10 uM
Cytochrome P450 2D6 = Cytochrome P450 2D6 (Homo sapiens, UniProt P10635); assay: Inhibition of CYP2D6; assay type: ADME
[18] = biological target: T5, 5-hydroxytryptamine receptor 3A (Homo sapiens, UniProt P46098); assay: Inhibition of human 5HT3 receptor
T5 sequence (P46098 whole entry): T4 sequence (whole entry)

Rattus norvegicus [19] = assay: Procognitive activity in Sprague-Dawley rat assessed as increase in working memory at 0.1 to 0.3 mg/kg, po administered QD for 3 days 30 mins prior to testing by novel object recognition test; assay type: functional, organism-based
Rattus norvegicus [20] = assay: Procognitive activity in Sprague-Dawley rat assessed as recognition index at 0.1 mg/kg, po administered QD for 3 days 30 mins prior to testing by novel object recognition test (reference value: 50%); assay type: functional
[21] = Inhibition of adrenergic alpha2 receptor at 10 uM
[22] = biological target: T4, 5-hydroxytryptamine receptor 3A (Homo sapiens); assay: Inhibition of 5HT3 receptor at 10 uM
Rattus norvegicus [23] = assay: Procognitive activity in Sprague-Dawley rat assessed as increase in working memory at 1 mg/kg, po administered QD for 3 days 30 mins prior to testing by novel object recognition test (reference value: 51%); assay type: functional
Rattus norvegicus [24] = assay: Procognitive activity in Sprague-Dawley rat assessed as increase in working memory at 0.3 to 3 mg/kg, po administered QD for 3 days 30 mins prior to testing by novel object recognition test; assay type: functional, organism-based
[25] = biological target: T2, Neuronal acetylcholine receptor; alpha4/beta2; assay: Apparent antagonist activity at alpha4beta2 nAChR in human SH-EP1 cells assessed as inhibition of nicotine-induced calcium flux by calcium4-based FLIPR assay; assay type: functional, cell-based
[26] = biological target: T2, Neuronal acetylcholine receptor; alpha4/beta2; assay: Apparent antagonist activity at alpha4beta2 nAChR in human SH-EP1 cells assessed as inhibition of nicotine-induced calcium flux by calcium4-based FLIPR assay relative to control; assay type: functional, cell-based
[27] = biological target: T2, Neuronal acetylcholine receptor; alpha4/beta2; assay: Displacement of [3H]methylcarbamylcholine from alpha4beta2 nAChR; assay type: protein-complex assay

Neuronal acetylcholine receptor; alpha4/beta2 (Rattus norvegicus, UniProt P09483+P12390), sequence (P09483 whole entry): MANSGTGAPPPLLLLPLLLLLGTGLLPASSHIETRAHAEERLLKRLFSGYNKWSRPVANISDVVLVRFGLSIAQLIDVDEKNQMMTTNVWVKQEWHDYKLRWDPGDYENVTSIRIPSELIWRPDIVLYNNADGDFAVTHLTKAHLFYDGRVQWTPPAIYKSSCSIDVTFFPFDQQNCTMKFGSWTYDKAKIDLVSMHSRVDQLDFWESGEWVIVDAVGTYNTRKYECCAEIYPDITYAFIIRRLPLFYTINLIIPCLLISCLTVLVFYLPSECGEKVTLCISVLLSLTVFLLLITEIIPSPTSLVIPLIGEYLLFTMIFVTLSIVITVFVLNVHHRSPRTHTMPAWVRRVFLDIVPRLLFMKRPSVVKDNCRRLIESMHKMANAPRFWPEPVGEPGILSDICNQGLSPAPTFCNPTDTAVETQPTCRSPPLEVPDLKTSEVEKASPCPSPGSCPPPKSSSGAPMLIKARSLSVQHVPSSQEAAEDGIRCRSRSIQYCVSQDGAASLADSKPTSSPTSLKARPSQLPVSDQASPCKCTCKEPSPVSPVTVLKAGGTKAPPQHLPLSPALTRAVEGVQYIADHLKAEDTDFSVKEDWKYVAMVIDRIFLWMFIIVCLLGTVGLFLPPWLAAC
Neuronal acetylcholine receptor; alpha4/beta2 (Rattus norvegicus, UniProt P09483+P12390), sequence (P12390 whole entry): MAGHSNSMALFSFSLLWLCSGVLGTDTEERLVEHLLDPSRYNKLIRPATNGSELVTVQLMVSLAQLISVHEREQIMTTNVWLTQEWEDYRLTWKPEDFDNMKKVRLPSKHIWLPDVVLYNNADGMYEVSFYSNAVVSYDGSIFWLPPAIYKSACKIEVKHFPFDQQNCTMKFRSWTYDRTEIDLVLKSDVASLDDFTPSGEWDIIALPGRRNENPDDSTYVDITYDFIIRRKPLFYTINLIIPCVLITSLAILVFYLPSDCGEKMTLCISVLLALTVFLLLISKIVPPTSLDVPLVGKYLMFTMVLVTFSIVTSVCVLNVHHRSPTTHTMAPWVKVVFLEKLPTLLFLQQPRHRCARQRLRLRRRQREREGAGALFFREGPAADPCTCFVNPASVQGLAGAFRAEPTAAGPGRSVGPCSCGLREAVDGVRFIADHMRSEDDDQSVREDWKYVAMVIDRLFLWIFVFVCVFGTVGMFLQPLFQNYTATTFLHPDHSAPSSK
T1 sequence (P30926 whole entry): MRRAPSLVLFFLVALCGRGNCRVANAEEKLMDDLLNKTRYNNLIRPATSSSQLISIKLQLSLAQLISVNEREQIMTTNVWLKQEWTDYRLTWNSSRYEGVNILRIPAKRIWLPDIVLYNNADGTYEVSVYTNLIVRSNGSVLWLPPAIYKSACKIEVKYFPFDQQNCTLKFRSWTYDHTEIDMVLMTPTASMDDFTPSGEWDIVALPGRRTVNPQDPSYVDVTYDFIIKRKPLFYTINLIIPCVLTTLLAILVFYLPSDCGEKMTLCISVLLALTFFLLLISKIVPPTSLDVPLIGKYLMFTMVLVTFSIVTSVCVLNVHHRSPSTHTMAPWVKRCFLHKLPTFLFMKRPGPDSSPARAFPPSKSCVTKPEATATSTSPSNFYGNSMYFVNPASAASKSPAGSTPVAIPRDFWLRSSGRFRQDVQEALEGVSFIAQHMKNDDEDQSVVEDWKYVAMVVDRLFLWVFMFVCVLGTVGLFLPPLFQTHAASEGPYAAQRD
T1 sequence (P32297 whole entry): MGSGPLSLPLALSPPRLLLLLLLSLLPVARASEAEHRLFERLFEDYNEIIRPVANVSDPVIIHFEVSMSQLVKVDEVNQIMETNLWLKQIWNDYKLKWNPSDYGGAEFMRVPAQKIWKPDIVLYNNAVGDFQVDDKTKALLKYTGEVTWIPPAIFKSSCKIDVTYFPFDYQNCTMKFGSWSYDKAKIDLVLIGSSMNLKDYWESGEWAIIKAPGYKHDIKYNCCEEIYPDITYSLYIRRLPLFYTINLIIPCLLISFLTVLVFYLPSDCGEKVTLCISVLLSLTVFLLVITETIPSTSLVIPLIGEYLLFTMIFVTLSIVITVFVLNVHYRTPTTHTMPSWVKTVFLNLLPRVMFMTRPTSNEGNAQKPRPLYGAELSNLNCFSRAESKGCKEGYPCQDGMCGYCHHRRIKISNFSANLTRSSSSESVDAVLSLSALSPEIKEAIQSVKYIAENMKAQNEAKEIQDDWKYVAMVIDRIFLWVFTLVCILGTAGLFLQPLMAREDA
T2 sequence (P17787 whole entry): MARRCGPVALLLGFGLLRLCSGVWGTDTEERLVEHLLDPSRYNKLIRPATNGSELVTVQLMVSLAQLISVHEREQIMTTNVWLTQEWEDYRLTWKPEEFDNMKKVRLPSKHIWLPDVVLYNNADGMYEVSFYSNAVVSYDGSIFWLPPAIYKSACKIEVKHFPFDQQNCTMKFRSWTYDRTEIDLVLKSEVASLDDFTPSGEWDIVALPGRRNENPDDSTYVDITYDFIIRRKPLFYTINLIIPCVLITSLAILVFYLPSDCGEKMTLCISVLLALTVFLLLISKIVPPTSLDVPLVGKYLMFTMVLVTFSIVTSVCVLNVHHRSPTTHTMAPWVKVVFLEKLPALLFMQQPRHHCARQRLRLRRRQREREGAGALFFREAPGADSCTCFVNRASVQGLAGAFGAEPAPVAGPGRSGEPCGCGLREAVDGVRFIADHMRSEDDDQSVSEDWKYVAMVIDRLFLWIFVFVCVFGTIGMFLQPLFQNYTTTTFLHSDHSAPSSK
T2 sequence (P43681 whole entry): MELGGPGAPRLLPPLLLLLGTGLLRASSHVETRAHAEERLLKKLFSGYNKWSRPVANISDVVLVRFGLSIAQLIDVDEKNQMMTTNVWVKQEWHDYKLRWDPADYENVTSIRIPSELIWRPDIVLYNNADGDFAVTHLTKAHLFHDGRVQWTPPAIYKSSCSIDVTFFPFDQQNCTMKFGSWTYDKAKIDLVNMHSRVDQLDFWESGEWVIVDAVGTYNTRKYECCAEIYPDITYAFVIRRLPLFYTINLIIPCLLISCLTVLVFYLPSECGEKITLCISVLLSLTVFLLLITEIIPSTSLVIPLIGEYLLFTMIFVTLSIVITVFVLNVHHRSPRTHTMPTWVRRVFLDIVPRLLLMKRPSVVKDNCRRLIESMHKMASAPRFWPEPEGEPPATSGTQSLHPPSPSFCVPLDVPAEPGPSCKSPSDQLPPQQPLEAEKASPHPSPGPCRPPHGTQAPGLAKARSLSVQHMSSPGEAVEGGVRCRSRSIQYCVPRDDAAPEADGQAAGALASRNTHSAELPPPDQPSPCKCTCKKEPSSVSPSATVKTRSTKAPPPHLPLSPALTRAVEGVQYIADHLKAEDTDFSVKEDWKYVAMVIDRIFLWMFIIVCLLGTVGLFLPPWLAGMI
Neuronal acetylcholine receptor subunit alpha-7, sequence (P36544 whole entry): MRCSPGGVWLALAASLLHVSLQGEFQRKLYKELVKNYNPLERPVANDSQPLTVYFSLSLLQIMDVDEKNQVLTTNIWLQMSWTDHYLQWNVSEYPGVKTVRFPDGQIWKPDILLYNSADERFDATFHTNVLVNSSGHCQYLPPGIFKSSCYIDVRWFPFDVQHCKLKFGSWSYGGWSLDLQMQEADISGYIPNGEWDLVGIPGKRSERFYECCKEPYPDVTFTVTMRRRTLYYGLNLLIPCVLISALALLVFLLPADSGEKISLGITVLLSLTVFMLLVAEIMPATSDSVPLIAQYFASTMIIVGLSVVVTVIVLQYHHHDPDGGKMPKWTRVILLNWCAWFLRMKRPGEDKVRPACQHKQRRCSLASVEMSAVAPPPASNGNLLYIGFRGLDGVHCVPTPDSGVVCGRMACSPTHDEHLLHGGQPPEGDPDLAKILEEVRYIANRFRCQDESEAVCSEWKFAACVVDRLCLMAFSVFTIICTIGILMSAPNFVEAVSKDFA
Cytochrome P450 2D6, sequence (P10635 whole entry): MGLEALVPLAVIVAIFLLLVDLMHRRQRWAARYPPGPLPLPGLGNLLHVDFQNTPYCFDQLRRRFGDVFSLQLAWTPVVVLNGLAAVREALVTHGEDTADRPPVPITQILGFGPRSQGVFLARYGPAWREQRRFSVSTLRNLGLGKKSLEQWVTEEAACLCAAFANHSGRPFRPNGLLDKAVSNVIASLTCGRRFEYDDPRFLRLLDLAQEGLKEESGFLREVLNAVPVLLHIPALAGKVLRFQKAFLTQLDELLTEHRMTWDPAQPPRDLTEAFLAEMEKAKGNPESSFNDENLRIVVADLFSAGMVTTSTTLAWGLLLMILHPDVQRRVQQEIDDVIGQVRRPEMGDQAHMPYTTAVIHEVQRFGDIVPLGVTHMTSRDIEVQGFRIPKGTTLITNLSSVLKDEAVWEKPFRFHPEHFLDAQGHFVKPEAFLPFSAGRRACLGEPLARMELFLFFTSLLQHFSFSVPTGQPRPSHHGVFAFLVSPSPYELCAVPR

| Compound | Ki [1] [µM] | Ki [2] [µM] | EC50 [3] [µM] | Emax [4] [%] | Emax [5] [%] | Ki [6] [µM] | EC50 [7] [µM] | Ki [8] [µM] | other results |
| --- | --- | --- | --- | --- | --- | --- | --- | --- | --- |
| N#Cc1ccoc1C(=O)N1CC2CNCC(C2)C1 | 0.28 | > 10 | 21 | 16 | 8 | > 10 | 26 | 0.039 |  |
| Cc1ccoc1C(=O)N1CC2CNCC(C2)C1 | 0.65 | > 10 | 25 | 11 | 9 | > 10 | 25 | 0.19 |  |
| O=C(c1occc1F)N1CC2CNCC(C2)C1 | 0.21 | > 10 | 32 | 54 | 15 | > 10 | 22 | 0.05 |  |
| CCC(=O)C1=CCCN(C)C1 [ARECOLON] |  |  |  |  |  |  |  |  | Ki [9]: 0.0058 µM |
| CC(=O)/C=C1\CN2CCC1CC2 |  |  |  |  |  |  |  |  | Ki [10]: 0.013 µM |
| N#Cc1ccc(C(=O)N2CC3CNCC(C3)C2)o1 | 0.078 | > 10 | 34 | 64 | 58 | 21 | 7.1 | 0.008 |  |
| CCOc1cncc(/C=C/CCNC)c1 | 0.006 | 71 | 20 | 10 |  |  |  | 0.012 | Ki [11]: 7 µM; EC50 [12]: 0.17 µM; Emax [13]: 57% |
| O=C(c1ccc(Cl)o1)N1CC2CNCC2C1 (stereo unspecified) [AZD1446] | 0.034 | 6.7 | 70 | 10 |  | > 10 |  | 0.03 | inhibition [14]: 97%; Activity [15]: inactive; inhibition [16]: 87%; EC50 [12]: 4.9 µM; Activity [17]: inactive; inhibition at 10 µM (hERG (KCNH2)): < 5%; inhibition (INH) (Cytochrome P450 2D6): Not Active; Ki [18]: 0.7 µM; Emax [13]: 120%; Activity (Rattus norvegicus [19]): Active; %max (Rattus norvegicus [20]): 74% |
| O=C(c1ccc(Cl)o1)N1CC2CNCC(C2)C1 | 0.007 | > 10 | 15 | 61 | 47 | 6.4 | 1.4 | 0.005 | inhibition [21]: 35%; Activity [15]: inactive; inhibition [22]: 40%; Activity [17]: inactive; inhibition at 10 µM (hERG (KCNH2)): < 5%; inhibition (INH) (Cytochrome P450 2D6): Not Active; %max (Rattus norvegicus [23]): 75%; Activity (Rattus norvegicus [24]): Active |
| O=C(c1ccc(Oc2ccccc2)cc1)N1CC2CNCC2C1 (stereo unspecified) | 0.039 | 13 | 25 | 12 |  | 14 |  | 0.019 | EC50 [12]: 51 µM; Emax [13]: 9%; IC50 [25]: 7.8 µM; Imax [26]: 94% |
| Cc1ccc(C(=O)N2CC3CNCC(C3)C2)o1 | 0.24 | > 10 | 37 | 11 | 19 | > 10 | 8.5 | 0.046 |  |
| CN1CCC=C(c2ccc(Cl)nc2)C1 |  |  |  |  |  |  |  |  | Ki [9]: 0.0022 µM |
| CN[C@@H](C)C/C=C/c1cccnc1 |  |  |  |  |  |  |  |  | Ki [9]: 0.024 µM |
| N#Cc1coc(C(=O)N2CC3CNCC(C3)C2)c1 |  | > 10 | 35 | 19 | 20 | > 10 | 110 | 0.033 |  |
| C1=C(c2cccnc2)C2CCC(CC1)N2 (stereo unspecified) |  |  |  |  |  |  |  |  | Ki [9]: 0.00027 µM |
| c1cncc(N2CC3CNCC(C3)C2)c1 |  |  |  |  |  |  |  |  | Ki [9]: 0.0002 µM |
| O=C(c1ccc(F)o1)N1CC2CNCC(C2)C1 | 0.015 | 4.7 | 9.1 | 110 | 73 | 1.1 | 0.3 | 0.003 |  |
| O=C(c1cc(F)co1)N1CC2CNCC(C2)C1 |  | > 10 | 22 | 93 | 66 | 3.2 | 0.8 | 0.022 |  |
| O=C(c1occc1Br)N1CC2CNCC(C2)C1 | 0.13 | > 10 | 24 | 20 | 8 | 6.5 | 8.6 | 0.023 |  |
| C(=C1/CN2CCC1CC2)/c1cccnc1 |  |  |  |  |  |  |  |  | Ki [27]: 0.002 µM |
| O=C(c1cc(Br)co1)N1CC2CNCC(C2)C1 | 0.057 | > 10 | 50 | 13 | 34 | 9.3 | 18 | 0.003 |  |
| O=C(c1occc1Cl)N1CC2CNCC(C2)C1 | 0.12 | > 10 | 28 | 26 | 3 | 8.7 | 76 | 0.015 |  |
| O=C(c1cc(Cl)co1)N1CC2CNCC(C2)C1 | 0.04 | > 10 | 54 | 27 | 11 | 6.6 | 100 | 0.005 |  |
| O=C(c1ccc(Br)o1)N1CC2CNCC(C2)C1 | 0.1 | > 10 | 30 | 28 | 23 | 6.5 | 8.3 | 0.026 |  |
| O=C(C1CC1)N1C[C@H]2CN[C@@H](C2)C1 | 0.01 | 0.04 | 1.4 | 140 |  | 0.11 |  | 0.007 | EC50 [12]: 1.7 µM; Emax [13]: 100% |
| O=C(c1ccc(Br)o1)N1C[C@H]2CN[C@@H](C2)C1 | 0.085 | 14 | 13 | 43 |  | 3 |  | 0.045 | EC50 [12]: 4.8 µM; Emax [13]: 50% |
